The subject of data set [1] is anti-dsDNA IgG binding to dsDNA antigen. Briefly: Inhibition ELISA, anti-dsDNA IgG binding to dsDNA antigen. Set-up: species or system murine. The settings on record: anti-dsDNA IgG 2 µg/ml pre-incubated with serially diluted peptide (0.04 to 80 µg/ml); three independent experiments. The protocol:
Common ELISAs (for binding to dsDNA or peptide) and inhibition ELISAs were performed as previously described ([8], [35]). Briefly, the KIR ELISA was carried out by adding biotinylated KIR peptide (DTHFRTFRSHSDYRRI, 5 µg/ml) to streptavidin-coated 96-well plates. For inhibition with KIR (or ALW) peptide, anti-dsDNA IgG (2 µg/ml) was pre-incubated with serially diluted peptide (from 0.04 to 80 µg/ml), and then transferred to antigen-coated 96-well plates. Alkaline phosphatase-conjugated goat anti-mouse IgG (2 µg/ml; Southern Biotech) was used as secondary antibody. Similarly, for inhibition with anti-dsDNA IgG, the FITC-labeled JAK2 loop peptide (LPQDKEYYKVKEP, 0.2 µg/ml) was pre-incubated with serially diluted anti-dsDNA IgG (from 0.02 to 20 µg/ml) before transfer to KIR-coated plates, which were detected for fluorescein intensity under a Perkin Elmer Reader (Winpact Scientific, Irvine, CA, USA). Cell surface ELISA was performed by growing mesangial cells in 96-well plates ([8], [35]). All peptides were synthesized by Sangon Biotech Company (Shanghai, China).

Data set [2] relates to glomerular endothelial cells. In words: Cell viability (PrestoBlue), glomerular endothelial cells. Type of data set: cell-based, murine. The settings on record: D-form ALW 1 µg/ml, 2 days. Here is the method:
By using a HiTrap purification kit (GE Healthcare, Port Washington, NY, USA) ([8]), anti-dsDNA IgG was purified from the culture supernatants of murine WJ31 hydridoma clone (IgG2a; Jieqing Biotech). Control murine IgG (IgG2a; Jieqing Biotech) was verified by enzyme-linked immunosorbent assay (ELISA) to determine that there was no binding to DNA antigen (data not shown). Cells were starved routinely before the 2-day stimulation of anti-dsDNA IgG or control IgG (2 µg/ml). In some experiments, mesangial cells were stimulated with anti-dsDNA IgG (2 µg/ml) that was premixed with D-form (ALWPPNLHAWVP) or scrambled (PLPHNPWVLAAW) ALW peptide (1 µg/ml). The cell viability of three types of cells was measured using PrestoBlue viability reagent (Life Technologies, Carlsbad, CA, USA).
Mesangial Glomerular Tubular cells endothelial epithelial
Supplementary Figure S7. Cell viability assays of kidney cells. (A) Murine cells were cultured in vitro, and received control or anti-dsDNA IgG stimulation (2 µg/ml, 2 days). (B) Similarly, these cells were also stimulated with scrambled or D-form ALW peptide (1 µg/ml, 2 days). The cell viability was measured using PrestoBlue viability reagent. Data were from three independent experiments. Data points and error bars […]
(also on this page, place not known: µ g/ml,2 µ g/ml,2 Cell viability (%) Cell viability (%))

Another data set has as its system kidneys of SCID mice. In words: Renal mRNA levels by real-time PCR, SCID mice. Type of data set: in vivo. The following applies: i.v. From the text:
(§1) Renal biopsies were obtained from patients with LN (n = 7), who had serum positivity of anti-dsDNA IgG (Table S1 in Supplementary Material). The diagnosis of LN was made based on the histological features of renal biopsies. For normal human controls, sera and non-lesional tissues were taken from patients (n = 5) who underwent surgical nephrectomy due to renal cell carcinoma or renal rupture (Table S1 in Supplementary Material). There was no statistical difference in term of age between the LN patients and the controls (p > 0.05). […] The MRL/lpr and MRL/MpJ mice (female, 12 or 24 weeks old, n = 5 each group) as well as SCID mice (female, 8 weeks old, n = 5 each group) were bred in the animal facility of Xi’an Jiaotong University Health Science Center. Urine, sera, and renal tissues were harvested from MRL/lpr and MRL/MpJ mice. Proteinuria was quantitated by the Coomassie brilliant blue method ([32]). All data about MRL/lpr and MRL/MpJ mice referred to that at age of 24 weeks unless otherwise noted. These SCID mice received intravenous injections of anti-dsDNA or control IgG at a dose of 100 µg twice weekly, which lasted for 4 weeks (n = 5 each group). Then, both serum and kidney samples were collected from SCID mice. This study was carried out in accordance with the recommendations of the guidelines of the Hospital Research Ethics Committee with written informed consent from all subjects. All subjects gave written informed consent in accordance with the Declaration of Helsinki. The protocol was approved by the Hospital Research Ethics Committee.
As previously described ([8]), total RNA was extracted from fresh tissues or cultured cells, followed by reverse transcription. The 7900HT Fast PCR System (Applied Biosystems, Carlsbad, CA, USA) was used for PCR, and SYBR Green Master Mixes (Invitrogen, Grand Island, NY, USA) was used as fluorescent dye. The sequences of primers (Jieqing Biotech) are listed in Table S2 in Supplementary Material.

Data set [3] deals with SOCS1, JAK2 and STAT1 in kidneys of SCID mice. In words: Renal SOCS1/JAK2/STAT1 proteins by Western blotting, SCID mice. Type of data set: in vivo. The following applies: i.v., n = 5, versus anti-dsDNA IgG alone. From the text:
Renal biopsies were obtained from patients with LN (n = 7), who had serum positivity of anti-dsDNA IgG (Table S1 in Supplementary Material). The diagnosis of LN was made based on the histological features of renal biopsies. For normal human controls, sera and non-lesional tissues were taken from patients (n = 5) who underwent surgical nephrectomy due to renal cell carcinoma or renal rupture (Table S1 in Supplementary Material). There was no statistical difference in term of age between the LN patients and the controls (p > 0.05). […] The MRL/lpr and MRL/MpJ mice (female, 12 or 24 weeks old, n = 5 each group) as well as SCID mice (female, 8 weeks old, n = 5 each group) were bred in the animal facility of Xi’an Jiaotong University Health Science Center. Urine, sera, and renal tissues were harvested from MRL/lpr and MRL/MpJ mice. Proteinuria was quantitated by the Coomassie brilliant blue method ([32]). […]
Fresh tissues and cell cultures were extracted for lysates with the addition of protease inhibitor cocktail (Thermo Scientific, Waltham, MA, USA). […] The band intensities were quantitated by ImageJ 1.61u software (National Institutes of Health, Bethesda, MD, USA) and normalized to β-actin values accordingly. The intensities of blank groups were set as 1 (baseline), and the relative intensities were calculated in other groups.
In general terms: Immunoblotting shows a protein as a band on a membrane.

For the next data set, the system named is glomeruli of SCID mice. In words: Glomerular IgG deposition (IHC and IF), SCID mice. The class given is in vivo. The following applies: i.v., anti-dsDNA IgG mixed with D-form ALW before injection, n = 5, versus anti-dsDNA IgG alone.
Excerpt: as §1, with “All subjects gave written informed consent in accordance with the Declaration of Helsinki. The protocol was approved by the Hospital Research Ethics Committee.” left out

Setting [4] is: D-form ALW plus anti-dsDNA IgG, n = 5, versus anti-dsDNA IgG alone.
Setting [5] is: anti-dsDNA IgG pre-mixed with D-form ALW, n = 5.

“Also recorded” adds a separate entry of the source.

Consider 1 sequence from paper PMC5449454, “Anti-Double-Stranded DNA IgG Participates in Renal Fibrosis through Suppressing the Suppressor of Cytokine Signaling 1 Signals” (Frontiers in Immunology, 2017).

As for “ALWPPNLHAWVP [D-form ALW, ALW peptide with two terminal residues A and P replaced with D-form ones]”, the “inhibition of anti-dsDNA IgG binding to DNA antigen” value in data set [1] is given as “inherited the inhibitory property of the (natural) ALW”. Also, the cell viability entry in data set [2] was “no changes”. In the data set with kidneys of SCID mice (setting [4]), the “renal JAK2 mRNA level, ALW plus anti-dsDNA IgG” value is reported as “reduced”; the “renal SOCS1 mRNA level, ALW plus anti-dsDNA IgG” value is “not affected”; the “renal STAT1 mRNA level, ALW plus anti-dsDNA IgG” value is reported as “reduced”. Besides, in the data set on kidneys of SCID mice (setting [5]), the “renal PDGFB mRNA level, ALW plus anti-dsDNA IgG” value was “substantial decrease”; the “renal TGF-β1 mRNA level, ALW plus anti-dsDNA IgG” value is recorded as “substantial decrease”; the “renal TWEAK mRNA level, ALW plus anti-dsDNA IgG” value is on record as “substantial decrease”. In addition, in data set [3], the “renal JAK2 protein expression level, ALW plus anti-dsDNA IgG” value was “remarkable attenuation” and the “renal STAT1 protein expression level, ALW plus anti-dsDNA IgG” value is reported as “remarkable attenuation”. Besides, in the data set on glomeruli of SCID mice, the “glomerular IgG deposition, ALW plus anti-dsDNA IgG” value is recorded as “less IgG deposition; also recorded: significant reduction”.
